Literature values as cited in patent publication US20230310471A1, “METHODS, DEVICES, AND SYSTEMS FOR TREATING LENS PROTEIN AGGREGATION DISEASES” (priority 2022, published 2023).

Tested on: vimentin
Settings: background statement, no experimental details printed

## O=S(=O)(F)Cc1ccccc1 [PMSF, phenylmethylsulfonyl fluoride]
  vimentin degradation: decrease vimentin degradation

## CC(=O)N[C@@H](CC(C)C)C(=O)N[C@@H](CC(C)C)C(=O)N[C@H](C=O)CCCNC(=N)N [leupeptin]
  vimentin degradation: decrease vimentin degradation
